Results published in article PMC5059921, “Chalepin: isolated from Ruta angustifolia L. Pers induces mitochondrial mediated apoptosis in lung carcinoma cells” (BMC Complementary and Alternative Medicine, 2016).
Like-named read-outs stand apart in the source and are kept apart here.

Experiments:
A549 cells [1] = experiment: Mitochondrial membrane potential assay (JC-1, flow cytometry); format: cell-based; settings: Homo sapiens, A549, 48 h, read-out: JC-1 dot plot: Viable
Method: A lipophilic and cell-permeable fluorochrome JC-1 (5,5’,6,6’-tetrachloro-1,1’,3,3’-tetraethyl benzimidazolyl carbocyanine iodide), was used to measure mitochondrial membrane potential (Δψm) according to the manufacturer’s instructions (BD MitoScreen Kit). The cells (1×10^6) were seeded in tissue culture plates and were treated with 18, 27, 36, and 45 μg/ml of chalepin for 48 h incubation. The cells were then harvested, washed with PBS twice and incubated with JC-1 dye for 15 mins at 37°C. At the end of the incubation, the cells were washed and resuspended with 500 μl of 1x assay buffer (provided in the kit). The intracellular fluorescence signals of JC-1 in the cells were then measured with Accuri C6 flow cytometer. Approximately 10,000 events were recorded per analysis. In healthy cells, JC-1 accumulates as aggregates in the mitochondria and emits red fluorescence. In cells, which have undergone apoptosis, JC-1 remains in monomeric form in the cytoplasm and emits green fluorescence. The red and green fluorescence were detected at FL-2 and FL-1 channels respectively in the flow cytometer. Ratio of mean fluorescence intensity between the FL1 and FL2 channels were calculated and this is used to determine the changes in the mitochondrial membrane potential. The results were analysed by calculating the ratio of JC-1 dimers to JC-1 monomers. A […] ratio indicated a […] membrane depolarization of mitochondria in cells (BD MitoScreen Flow Cytometry Mitochondrial Membrane Potential Detection Kit Instruction Manual). Cells that was untreated in 0.5 % DMSO acted as the control.
JC-1 (5,5’,6,6’-tetrachloro-1,1’,3,3’-tetraethyl benzimidazolyl carbocyanine iodide) mitochondrial membrane potential assay kit by Abcam was used to stain the A549 cells to view the mitochondrial membrane potential (Δψm) changes in cells. Prior to the JC-1 staining initiation, 1x dilution buffer were prepared by adding 10 mL 10× dilution buffer to 90 mL deionized water. The solution was mixed gently and throughly. JC-1 stock (1mM) was diluted to 20 μM working JC-1 solution. This was done by adding 200 μl of JC-1 stock solution into 10 mL of 1× dilution buffer. The cells (1×10^6) were seeded in tissue culture plates and were treated with 18, 27, 36, and 45 μg/ml of chalepin for 48 and 72 h incubation. The cells were then harvested, washed with PBS twice and incubated with JC-1 dye for 20 mins at 37 °C. At the end of the incubation, the cells were washed and resuspended with 1000 μl of 1× dilution buffer. The cells were viewed using a fluorescence microscope at an excitation wavelength of Ex475 ± 20nm and emission wavelength of Em530 ± 15 nm and 590 ± 17.5 nm. The images were captured and recorded.

A549 cells [2] = experiment: Western blot analysis of apoptotic proteins; format: cell-based, human
[3] = test system: MRC5 (human normal lung fibroblasts); experiment: SRB in vitro cytotoxicity screening (toxicity to normal cells); format: cell-based; settings: Homo sapiens, MRC5, isolated compounds, 72 h, read-out: IC50 in μg/ml (μM) (MRC5) 72 h (converted)
Method: The human cell lines A549 (lung cancer) and Ca Ski (cervical cancer) were cultured as monolayer in RPMI 1640 growth media whereas HCT-116 (colon cancer) and MRC5 (human normal lung fibroblasts) was cultured in McCoy’s 5A and EMEM medium, respectively. All cells were purchased from the […] (ATCC, USA). All the media were supplemented with 10 % v/v foetal bovine serum (FBS), 100 μg/mL penicillin/streptomycin, and 50 μg/mL amphotericin B. The cells were cultured in a 5 % CO2 incubator at 37 °C.
The monolayer cell culture was detached using accutase and the cell count was adjusted to 2.5 x10^5 -3.0 x10^5 cells/mL using medium containing feotal bovine serum. The cells were then plated into 96 wells with a cell density of 5000-7000 cells/well and then incubated for 24 h to allow adherence of cells to the base of well of the plates. The media was then removed and 200 μl of fresh media containing different concentration of various extracts or isolated compounds were added. Cisplatin was used as the positive control. The plates were incubated for 24, 48 and 72 h at 37 °C and 5 % CO2. The cytotoxicity of the extracts and isolated compounds were screened using the […] (SRB) assay. This assay was first described by Houghton in 2007 [8]. The incubation was halted by gentle addition of 50 μl ice cold 4 % trichloroacetic acid (TCA) to each well and the plates were incubated at 4 °C for 1 h. Then, the supernatant was discarded and the plates were washed with distilled water for 5 times and then air dried. SRB dye, 50 μl, (0.4 % w/v) was added into each well and the treated cells and control were incubated at room temperature for 30 min. The unbound dye was removed by rapid washing four times with 1 % acetic acid. The plates were then air dried and 100 μl of tris base (10 mM unbuffered, pH 10.5) was added and the plates were shaken at 500 rpm for 5 min to solublize the bound SRB stain. The plates were then read with an ELISA reader (Synergy H1 Hybrid) at an absorbance of 492 nm.

A549 cells [4] = experiment: Apoptosis detection by Annexin V-FITC/PI staining (flow cytometry); format: cell-based, human; settings: incubation time not stated
Method: FITC annexin V apoptosis detection kit (BD) was used to detect apoptosis. Cells were seeded in tissue culture dishes (5000-7000 cells/dish) and allowed to adhere overnight. Next, the cells were treated with various concentrations of chalepin for 48 and 72 h. The cells were harvested, washed, and resuspended in 1x binding buffer according to the manual provided in the kit. In the next step, the cells were stained in the ratio of per 100,000 cells; staining of cells with 5 μL of FITC-annexin V and 5 μL of propidium iodide was done for 15 min. Then, 200 μL of 1× binding buffer was added to each sample. Unstained and single-stained untreated cells were also included as controls. A minimum number of 10,000 events was acquired for each replicate using Accuri C6 flow cytometer. A quadrant statistic was used to measure the population of viable, early apoptotic, late apoptotic and secondary necrotic cells. The determination betweent these different populations were obtained by estimating quantitatively the cells that were AnnexinV/PI stained.

[5] = A549, 36 μg/ml, 2,4,8,12 and 24 h

C=CC(C)(C)c1cc2cc3c(cc2oc1=O)O[C@H](C(C)(C)O)C3 [Chalepin, chalepin]
viability at 18 µg/mL (A549 cells [1]): 78.3% | viability at 27 µg/mL (A549 cells [1]): 68.2% | viability at 36 µg/mL (A549 cells [1]): 54.2% | viability at 45 µg/mL (A549 cells [1]): 52.9% | Procaspase 3 (A549 cells [2]; [5]): downregulation | Procaspase 9 (A549 cells [2]; [5]): downregulation | anti-apoptotic gene products Bcl-2, survivin, XIAP, Bcl-xl and cFLIP (A549 cells [2]; [5]): downregulate | cleaved caspase 3 (A549 cells [2]; [5]): upregulation | expression of Bax (A549 cells [2]; [5]): upregulation | expression of cytochrome c (A549 cells [2]; [5]): upregulation | expression of p53 (A549 cells [2]; [5]): upregulation | quantity of PARP expressed (A549 cells [2]; [5]): decreased with time | Bak (A549 cells [2]; A549, 36 μg/ml, time dependently): upregulated | IC50 ([3]; value in brackets): 74.5 µM | IC50 [3]: 23.4 ± 0.6 µg/mL | Annexin V positive cells (early and late apoptotic) (A549 cells [4]; A549, 9 μg/ml): 7.27 ± 0.16% | Annexin V positive cells (early and late apoptotic) (A549 cells [4]; A549, 45 μg/ml): 20.6 ± 0.53%
